We go through 17 molecules from ChEMBL document CHEMBL1777720, “Novel, potent, and orally bioavailable phosphinic acid inhibitors of the hepatitis C virus NS3 protease” (Bioorg Med Chem Lett, 2011).

Data set [1] deals with Hepatitis C virus. The data set can be described thus: Antiviral activity against HCV genotype 1b infected in Huh7 cells assessed as inhibition of viral replication by cell-based replicon assay. The format is functional, organism-based, Hepacivirus hominis. The following applies: Huh-7.
Data set [2] in a line: Inhibition of HCV 1a NS3/4A protease. Also on record: species or system Hepatitis C virus subtype 1a.
Data set [3] in a line: Clearance in dog at 1 mg/kg, iv. The format is ADME, organism-based, Canis lupus familiaris. Also on record: dose 1 mg/kg, route intravenous. The following applies: in vivo.
Data set [4] in a line: Oral bioavailability in dog at 4 mg/kg. The following applies: in vivo. The format is ADME, organism-based, Canis lupus familiaris.
A short description of data set [5]: Clearance in rat at 0.4 mg/kg, iv. The format is ADME, organism-based. The arrangement: dose 0.4 mg/kg, route intravenous. The following applies: in vivo.
Data set [6] in a line: Oral bioavailability in dog at 3 mg/kg. The format is ADME, organism-based, Canis lupus familiaris. The note with it: in vivo.
Data set [7] in a line: Clearance in dog at 0.5 mg/kg, iv. The format is ADME, organism-based, Canis lupus familiaris. The arrangement: dose 0.5 mg/kg, route intravenous. The following applies: in vivo.
Data set [8] in a line: Oral bioavailability in rat at 10.7 mg/kg, po. The format is ADME, organism-based. The following applies: in vivo.

The structures appear in SMILES notation.

For `COc1ccc2c(O[C@@H]3C[C@H]4C(=O)N[C@]5(P(=O)(O)Cc6ccccc6Cl)C[C@H]5/C=C/CCCCC[C@H](NC(=O)OC5CCCC5)C(=O)N4C3)cc(-c3csc(NC(C)C)n3)nc2c1`, the EC50 in data set [1] worked out at 5 nM. The same molecule displayed an IC50 in data set [2] of 1 nM. Besides, in data set [3], the clearance is 9.33 mL/min/kg.

For `COc1ccc2c(O[C@@H]3C[C@H]4C(=O)N[C@]5(P(=O)(O)O)C[C@H]5/C=C/CCCCC[C@H](NC(=O)OC5CCCC5)C(=O)N4C3)cc(-c3csc(NC(C)C)n3)nc2c1`, the EC50 in data set [1] was determined as 5 nM. In data set [2], the IC50 turned out to be 1 nM.

For the molecule `COc1ccc2c(O[C@@H]3C[C@H]4C(=O)N[C@]5(P(=O)(O)Cc6ccccc6)C[C@H]5CCCCCCC[C@H](NC(=O)OC5CCCC5)C(=O)N4C3)cc(-c3csc(NC(C)C)n3)nc2c1`, the concentration giving a half-maximal response (EC50) in data set [1] came out at 5 nM. The molecule further yielded an IC50 in data set [2] of 6 nM. The bioavailability in data set [4] stood at 6.4%. Besides, the clearance in data set [3] is 6 mL/min/kg.

`COc1ccc2c(O[C@@H]3C[C@H]4C(=O)N[C@]5(P(=O)(O)Cc6ccccc6OC)C[C@H]5CCCCCCC[C@H](NC(=O)OC5CCCC5)C(=O)N4C3)cc(-c3csc(NC(C)C)n3)nc2c1`: the EC50 in data set [1] was 7 nM. In addition, half-maximal inhibition in data set [2] (IC50) required 3 nM. Also, the clearance in data set [3] was 5.33 mL/min/kg.

Consider `C=C[C@@H]1C[C@]1(NC(=O)[C@@H]1C[C@@H](Oc2cc(-c3csc(NC(C)C)n3)nc3cc(OC)ccc23)CN1C(=O)[C@@H](NC(=O)OC1CCCC1)C(C)(C)C)P(=O)(O)C(C)C`, for which the EC50 in data set [1] is 3080 nM. For the same molecule, in data set [2], the concentration for half-maximal inhibition (IC50) stood at 86 nM.

Regarding `COc1ccc2c(O[C@@H]3C[C@H]4C(=O)N[C@]5(P(=O)(O)Cc6ccccc6)C[C@H]5/C=C/CCCCC[C@H](NC(=O)OC5CCCC5)C(=O)N4C3)cc(-c3csc(NC(C)C)n3)nc2c1`, the EC50 in data set [1] came to 10 nM. Besides, the IC50 in data set [2] came out at 3 nM.

As for `C=C[C@@H]1C[C@]1(NC(=O)[C@@H]1C[C@@H](Oc2cc(-c3csc(NC(C)C)n3)nc3cc(OC)ccc23)CN1C(=O)[C@@H](NC(=O)OC1CCCC1)C(C)(C)C)P(=O)(O)Cc1ccccc1`, the EC50 in data set [1] is 180 nM. In addition, in data set [2], it took 9 nM to reach half-maximal inhibition (IC50). In addition, the results for the clearance in data set [5] and in data set [7] were 36.7 mL/min/kg and 10.7 mL/min/kg, respectively. The molecule also showed a bioavailability in data set [6] of 4.6%.

Regarding `C=C[C@@H]1C[C@]1(NC(=O)[C@@H]1C[C@@H](Oc2cc(-c3csc(NC(C)C)n3)nc3cc(OC)ccc23)CN1C(=O)[C@@H](NC(=O)OC1CCCC1)C(C)(C)C)P(=O)(O)CC`, the EC50 in data set [1] turned out to be 390 nM. This molecule came in with an IC50 in data set [2] of 8 nM.

Regarding `C=C[C@@H]1C[C@]1(NC(=O)[C@@H]1C[C@@H](Oc2cc(-c3csc(NC(C)C)n3)nc3cc(OC)ccc23)CN1C(=O)[C@@H](NC(=O)OC1CCCC1)C(C)(C)C)P(C)(=O)O`, the EC50 in data set [1] came out at 69 nM. This molecule returned an IC50 in data set [2] of 6 nM. Besides, the bioavailability in data set [8] was 0.4%. For the same molecule, the clearance in data set [5] was 28.7 mL/min/kg.

As for `C=C[C@@H]1C[C@]1(NC(=O)[C@@H]1C[C@@H](Oc2cc(-c3csc(NC(C)C)n3)nc3cc(OC)ccc23)CN1C(=O)[C@@H](NC(=O)OC1CCCC1)C(C)(C)C)P(=O)(O)Cc1ccccc1OC`, the EC50 in data set [1] is 47 nM. 6 nM corresponded to half-maximal inhibition in data set [2] (IC50).

With `C=C[C@@H]1C[C@]1(NC(=O)[C@@H]1C[C@@H](Oc2cc(-c3csc(NC(C)C)n3)nc3cc(OC)ccc23)CN1C(=O)[C@@H](NC(=O)OC1CCCC1)C(C)(C)C)P(=O)(O)c1ccccc1`, the EC50 in data set [1] came out at 2650 nM. In data set [2], this molecule came in with an IC50 of 44 nM.

For `COc1ccc2c(O[C@@H]3C[C@H]4C(=O)N[C@]5(P(=O)(O)Cc6ccccc6OC)C[C@H]5/C=C/CCCCC[C@H](NC(=O)OC5CCCC5)C(=O)N4C3)cc(-c3csc(NC(C)C)n3)nc2c1`, the EC50 in data set [1] is 9 nM. This molecule gave an IC50 in data set [2] of 3 nM. In data set [3], this molecule gave a clearance of 17.3 mL/min/kg.

On to `COc1ccc2c(O[C@@H]3C[C@H]4C(=O)N[C@]5(C(=O)O)C[C@H]5C=CCCCCC[C@H](NC(=O)OC5CCCC5)C(=O)N4C3)cc(-c3csc(NC(C)C)n3)nc2c1` [CILUPREVIR], for which, in data set [1], the EC50 is 1 nM. The molecule further registered an IC50 in data set [2] of 1 nM.

As for `C=C[C@@H]1C[C@]1(NC(=O)[C@@H]1C[C@@H](Oc2cc(-c3csc(NC(C)C)n3)nc3cc(OC)ccc23)CN1C(=O)[C@@H](NC(=O)OC1CCCC1)C(C)(C)C)P(=O)(O)CCCC`, in data set [1], the EC50 is 49 nM. Inhibition in data set [2] was half-maximal at 8 nM (IC50).

As for `COc1ccc2c(O[C@@H]3C[C@H]4C(=O)N[C@]5(P(=O)(O)Cc6ccccc6Cl)C[C@H]5CCCCCCC[C@H](NC(=O)OC5CCCC5)C(=O)N4C3)cc(-c3csc(NC(C)C)n3)nc2c1`, in data set [1], the EC50 came out at 5 nM. This molecule returned an IC50 in data set [2] of 3 nM. In addition, the clearance in data set [3] is 3.17 mL/min/kg.

`C=C[C@@H]1C[C@]1(NC(=O)[C@@H]1C[C@@H](Oc2cc(-c3csc(NC(C)C)n3)nc3cc(OC)ccc23)CN1C(=O)[C@@H](NC(=O)OC1CCCC1)C(C)(C)C)P(=O)(O)O` displayed a bioavailability in data set [6] of 0.5%. The molecule further showed a clearance in data set [3] of 11.2 mL/min/kg.

With `C=C[C@@H]1C[C@]1(NC(=O)[C@@H]1C[C@@H](Oc2cc(-c3csc(NC(C)C)n3)nc3cc(OC)ccc23)CN1C(=O)[C@@H](NC(=O)OC1CCCC1)C(C)(C)C)P(=O)(O)Cc1ccccc1Cl`, the EC50 in data set [1] came out at 311 nM. The molecule further displayed an IC50 in data set [2] of 6 nM.
